These results are taken from patent US20240398824A1, “Inhibition Of Rip Kinases For Treating Neurodegenerative Disorders” (The Johns Hopkins University, priority 2018, published 2024).

For test [1], the system named is primary microglia activated with α-synuclein PFFs. Put plainly: qPCR of A1 astrocyte inducers (TNFα, IL-1α, C1q) in primary microglia activated with α-synuclein PFFs. Format: cell-based, mouse. The conditions noted are these: inhibitor 10 μM 30 min, then α-synuclein PFFs 1 μg/mL 4 h; in words. As to the method: α-synuclein purification and α-synuclein PFFs preparation: Recombinant mouse α-synuclein proteins were purified as previously described with an IPTG-independent inducible pRK172 vector system (Nat Protoc. 9(9): 2135-46 (2014)). Endotoxin was depleted by ToxinEraser endotoxin removal kit (Genscript, NJ, USA). α-synuclein PFFs (5 mg ml^−1) was prepared in PBS while stirring with a magnetic stirrer (1,000 rpm at 37° C.). After a week of incubation of the α-synuclein protein, aggregates were diluted to 0.1 mg ml^−1 with PBS and sonicated for 30 s (0.5 s pulse on/off) at 10% amplitude (Branson Digital sonifier, Danbury, CT, USA). α-synuclein PFFs was validated using atomic force microscopy and transmission electron microscopy, and the ability to induce phospho-serine 129 α-synuclein (p-α-synSer129) was confirmed using immunostaining. α-synuclein PFFs was stored at −80° C. until use. […]
Comparative qPCR: The total RNA from cultured cells was extracted with RNA isolation kit (Qiagen, CA) following the instruction provided by the company. RNA concentration was measured spectrophotometrically using NanoDrop 2000 ([…]). […] The expression levels of targeted genes were normalized to the expression of β-actin and calculated based on the comparative cycle threshold Ct method (2-ΔΔCt).
For orientation: Real-time PCR tracks product formation cycle by cycle.

The test system of test [2] is primary astrocytes. The test can be described thus: A1 astrocyte conversion in primary astrocytes treated with PFF-activated microglia conditioned medium (MCM). The conditions noted are these: astrocytes 24 h with MCM from inhibitor-treated PFF-activated microglia; in words. Format: cell-based, mouse. The method, then:
Primary neuron, microglia and astrocyte cell cultures, and α-synuclein PFE's treatment: NOD2 or RIPK2 knockout mice was obtained from Jackson Laboratories (Bar Harbor, ME, USA). Primary cortical neurons were prepared from embryonic day 15.5 pups and cultured in Neurobasal medium (Gibco) supplemented with B-27, 0.5 mM L-glutamine, penicillin and streptomycin (Invitrogen, Grand Island, NY, USA) on tissue-culture plates coated with poly-L-lysine. The neurons were maintained by changing the medium every 3-4 days. Primary microglial and astrocyte cultures were performed as described previously (PMID: 26157004). Whole brains from mouse pups at postnatal day 1 (P1) were obtained. […] The total protein concentration was determined using Pierce BCA protein assay kit (Thermo Scientific), and 15 or 50 μg ml^-1 of total protein was added to mouse primary neurons for the neuronal cell death assay. […] RNA concentration was measured spectrophotometrically using NanoDrop 2000 ([…]). […] The expression levels of targeted genes were normalized to the expression of β-actin and calculated based on the comparative cycle threshold Ct method (2-ΔΔCt).

Take `CC(C)(C)S(=O)(=O)c1ccc2nccc(Nc3n[nH]c4ccc(F)cc34)c2c1` [GSK583, 6-(tert-butylsulfonyl)-N-(5-fluoro-1H-indazol-3-yl) quinolin-4-amine]: in test [1], the “release of A1 astrocyte inducer (TNFα, IL-1α, C1q) from microglia” value is “significantly suppress”. For the same compound, in test [2], the A1 astrocyte conversion entry was “significantly suppress”.
For the compound `COc1cc2ncnc(Nc3ccc(F)c(Cl)c3)c2cc1OCCCN1CCOCC1` [Gefitinib], the “release of A1 astrocyte inducer (TNFα, IL-1α, C1q) from microglia” value in test [1] is listed as “significantly suppress”. Besides, the A1 astrocyte conversion result in test [2] is reported as “significantly suppress”.
